In brackets after ≈: the same amount, converted by molar mass.
Key:
M. tuberculosis H37Rv [1] = experiment: Mouse model of acute M. tuberculosis infection; details: INH 25 mg/kg
M. tuberculosis H37Rv [2] = experiment: M. tuberculosis growth inhibition dose-response (MIC50), turbidity readout; assay type: cell-based, Mycobacterium tuberculosis; details: Mycobacterium tuberculosis, 240 h; H37Rv, 10 days; read-out: Antibacterial activity (MIC50) M. tuberculosis
M. tuberculosis H37Rv [3] = experiment: Bactericidal activity, CFU enumeration on agar after treatment; assay type: cell-based, Mycobacterium tuberculosis; details: Mycobacterium tuberculosis, H37RV; M. tuberculosis; 1 mM; log CFU/ml reduction from initial inoculum; read-out: Bactericidal activity (log reduction) at 1 mM
M. tuberculosis = experiment: Growth inhibition in acidic medium (pH 6.2); assay type: cell-based, Mycobacterium tuberculosis; details: Mycobacterium tuberculosis, pH 6.2; read-out: Activity (MIC50) in acidic medium (pH 6.2)
M. bovis BCG Pasteur = experiment: microbe, parasite or virus in culture; assay type: cell-based; details: Mycobacterium tuberculosis variant bovis BCG, BCG, read-out: Antibacterial activity (MIC50) M. bovis BCG
M. smegmatis = experiment: Spectrum of activity: M. smegmatis growth inhibition; assay type: cell-based; details: Mycolicibacterium smegmatis, 24 h; 1 day; read-out: Antibacterial activity (MIC50) M. smegmatis
M. avium = experiment: Spectrum of activity: M. avium growth inhibition; assay type: cell-based; details: Mycobacterium avium, 96 h; 4 days; read-out: Antibacterial activity (MIC50) M. avium
M. abscessus = experiment: Spectrum of activity: M. abscessus growth inhibition; assay type: cell-based; details: Mycobacteroides abscessus, 72 h; 3 days; read-out: Antibacterial activity (MIC50) M. abscessus
Staphylococcus aureus = experiment: Spectrum of activity: S. aureus growth inhibition; assay type: cell-based; details: Staphylococcus aureus; LB medium, overnight; read-out: Antibacterial activity (MIC50) S. aureus
Escherichia coli = experiment: Spectrum of activity: E. coli growth inhibition; assay type: cell-based; details: Escherichia coli; LB medium, overnight; read-out: Antibacterial activity (MIC50) E. coli
[4] = test system: human red blood cells (RBCs); experiment: Red blood cell lysis assay; details: hemolysis
[5] = Cytotoxicity assay, THP-1 cells (CellTiter 96 AQueous One); details: human
[6] = Cytotoxicity assay, HepG2 cells (CellTiter 96 AQueous One); details: human, HepG2 cells
[7] = Day 42, IPA 100 mg/kg, oral gavage 6 days/week, 4 weeks

Structure (SMILES)	Lungs CFU log10, mean difference from drug-free control (M. tuberculosis H37Rv [1]; [7])	Spleen CFU log10, mean difference from drug-free control (M. tuberculosis H37Rv [1]; [7])	effect on bacterial load of spleen (M. tuberculosis H37Rv [1]; 4 weeks of monotherapy)	MIC50 (M. tuberculosis H37Rv [2])	log reduction at 1000 µM (M. tuberculosis H37Rv [3])	MIC50 (M. tuberculosis)	MIC50 (M. bovis BCG Pasteur)	MIC50 (M. smegmatis)	MIC50 (M. avium)	MIC50 (M. abscessus)	MIC50 (Staphylococcus aureus)	MIC50 (Escherichia coli)	RBCs HC50 [4]	CC50 at 24 h [5]	CC50 at 24 h [6]
NNC(=O)c1ccncc1 [INH, isoniazid, reference compound]	-3.82 log10 CFU	-5.49 log10 CFU	sterilized the spleen												
Cc1ncc(C(N)=S)[nH]1 [Fragment F3, 2-Methyl-1H-imidazole-4-carbothioamide]				105 µM (≈ 14.8 µg/mL)	1.87	98 µM (≈ 13.8 µg/mL)	134 µM (≈ 18.9 µg/mL)	> 500 µM	198 µM (≈ 28 µg/mL)	304 µM (≈ 42.9 µg/mL)	> 500 µM	> 500 µM	>1,000 μM	850 µM	> 1000 µM
Cc1cc2cc(N)ccc2[nH]1 [Fragment F21, 2-Methyl-1H-indol-5-amine]				281 µM (≈ 41.1 µg/mL)	2.5	305 µM (≈ 44.6 µg/mL)	398 µM (≈ 58.2 µg/mL)	401 µM (≈ 58.6 µg/mL)	> 500 µM	> 500 µM	487 µM (≈ 71.2 µg/mL)	> 500 µM	>1,000 μM	409 µM	387 µM
Nc1ccc2oc3c(c2c1)CCCC3 [Fragment F5, 6,7,8,9-Tetrahydrodibenzo [b,d]furan-2-amine]				245 µM (≈ 45.9 µg/mL)	1.11	62 µM (≈ 11.6 µg/mL)	488 µM (≈ 91.4 µg/mL)	> 500 µM	> 500 µM	> 500 µM	> 500 µM	> 500 µM	>1,000 μM	> 1000 µM	> 1000 µM
Oc1noc2cc(Cl)ccc12 [Fragment F27, 6-Chlorobenzo[d]isoxazol-3-ol]				395 µM (≈ 67 µg/mL)	1.05	210 µM (≈ 35.6 µg/mL)	> 500 µM	> 500 µM	> 500 µM	> 500 µM	> 500 µM	> 500 µM	>1,000 μM	777 µM	> 1000 µM
COC(=O)c1cc2ccccc2cn1 [Fragment F4, Methyl isoquinoline-3-carboxylate]				175 µM (≈ 32.8 µg/mL)	1.98	158 µM (≈ 29.6 µg/mL)	143 µM (≈ 26.8 µg/mL)	389 µM (≈ 72.8 µg/mL)	344 µM (≈ 64.4 µg/mL)	> 500 µM	> 500 µM	> 500 µM	>1,000 μM	> 1000 µM	> 1000 µM
CNCc1ccccc1Oc1ccccc1 [Fragment F23, Methyl[(2-phenoxyphenyl)methyl]amine]				305 µM (≈ 65.1 µg/mL)	1.22	> 500 µM	347 µM (≈ 74 µg/mL)	> 500 µM	> 500 µM	> 500 µM	> 500 µM	> 500 µM	>1,000 μM	976 µM	789 µM
Cc1ccc(-c2cc(C(=O)O)c(C)o2)cc1 [Fragment F24, 2-Methyl-5-(4-methylphenyl)-3-furoic acid]				316 µM (≈ 68.3 µg/mL)	2.02	120 µM (≈ 25.9 µg/mL)	193 µM (≈ 41.7 µg/mL)	> 500 µM	458 µM (≈ 99 µg/mL)	> 500 µM	> 500 µM	> 500 µM	>1,000 μM	887 µM	984 µM
